pIC50: −log10 of the molar value. The source made the active and inactive calls. The rule behind the calls is not given here.
Assays:
[1] = target: T1, Ribosyldihydronicotinamide dehydrogenase [quinone] (Homo sapiens) (UniProt P16083); test: Inhibition of human recombinant NQO2 at 100 uM
T1 sequence (whole entry): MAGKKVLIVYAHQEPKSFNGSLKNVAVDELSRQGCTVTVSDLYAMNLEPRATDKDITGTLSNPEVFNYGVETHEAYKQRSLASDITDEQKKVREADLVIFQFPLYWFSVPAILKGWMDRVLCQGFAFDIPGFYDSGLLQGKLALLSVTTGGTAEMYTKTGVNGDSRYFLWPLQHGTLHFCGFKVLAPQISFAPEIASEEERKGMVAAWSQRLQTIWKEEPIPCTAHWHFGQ

[2] = target: T2, Ribosyldihydronicotinamide dehydrogenase [quinone] (Homo sapiens, UniProt P16083); test: Inhibition of human recombinant NQO2
T2 sequence (P16083 whole entry): T1 sequence (whole entry)

[3] = target: NAD(P)H dehydrogenase [quinone] 1 (Homo sapiens, UniProt P15559); test: Inhibition of human recombinant NQO1
NAD(P)H dehydrogenase [quinone] 1, sequence (P15559 whole entry): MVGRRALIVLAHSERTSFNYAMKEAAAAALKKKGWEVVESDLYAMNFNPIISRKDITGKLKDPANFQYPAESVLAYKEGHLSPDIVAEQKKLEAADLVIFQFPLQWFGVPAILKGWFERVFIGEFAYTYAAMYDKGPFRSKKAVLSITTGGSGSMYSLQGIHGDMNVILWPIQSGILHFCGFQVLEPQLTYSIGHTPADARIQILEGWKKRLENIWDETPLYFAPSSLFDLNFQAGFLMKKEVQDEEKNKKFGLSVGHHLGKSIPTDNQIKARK

C1=c2ccccc2=C2C(=C(c3ccccc3)C(c3ccccc3)=NN2c2ccccc2)S1
inhibition [1]: inactive

Clc1ccc(-c2cn3c(nc4ccccc43)c(-c3ccccc3)n2)cc1
inhibition [1]: inactive

CN1CC(c2ccccc2)=CC2=C1C=CC(=N)/C2=N\N
pIC50 [2]: 5.70
inhibition [1]: inactive

Oc1cc(O)c2ccccc2c1
pIC50 [2]: 5.48
inhibition [1]: inactive

CCN(CC)CCCC(C)Nc1ccnc2cc(Cl)ccc12 (stereo not drawn) [CHLOROQUINE]
pIC50 [2]: 5.82
inhibition [1]: inactive

CN(C)c1ccc(/C=c2\c3cc([N+](=O)[O-])ccc3n3c2cc(-c2ccccc2)[n+]3C)cc1
pIC50 [2]: 5.30
inhibition [1]: inactive

Cc1ccc(-n2cc(-c3ccc(Cl)cc3)c3c2N=CN2N=C(c4cccs4)NC32)cc1 (stereo not drawn)
inhibition [1]: inactive

Cc1ccc2c(c1)-c1c3c(nn1-c1ccccc1)-c1ccccc1SC3O2 (stereo not drawn)
inhibition [1]: inactive

CN(C)c1ccc(NN=C2SC(=N\c3ccccc3)/C(=N/c3ccccc3)S2)cc1
inhibition [1]: inactive

CCN(CC)Cc1cc(Nc2c3ccccc3nc3c4ccccc4n(C)c23)ccc1O
pIC50 [2]: 5.46
inhibition [1]: inactive

O=[N+]([O-])c1ccc(N/N=C/c2c(Cl)n(-c3ccccc3)c3ccccc23)c([N+](=O)[O-])c1
inhibition [1]: inactive

N=C(N)c1ccc(/N=N/c2cc(/N=N/c3ccccc3)ccc2O)cc1
pIC50 [2]: 5.74
inhibition [1]: inactive

COc1cc2cc(-c3cc(OC)c(OC)c(OC)c3)c3c(c2cc1OC)CNC3=O
pIC50 [2]: 5.70
inhibition [1]: inactive

c1ccc(/N=C2\SC(=NNc3ccccc3)S\C2=N/c2ccccc2)cc1
inhibition [1]: inactive

Cc1cc(NCCCCCCNc2cc(C)nc3ccc(N)cc23)c2cc(N)ccc2n1
pIC50 [2]: 5.72
inhibition [1]: inactive

COc1ccc(/C(Cl)=C(/C=O)c2cc(OC)c(OC)c(OC)c2)cc1OC
pIC50 [2]: 4.66
inhibition [1]: inactive

C/C(=N\NC(=O)c1ccncc1)c1sc(-n2nc(-c3ccccc3)cc2-c2ccccc2)nc1C
inhibition [1]: inactive

C(=N\c1ccc(-c2cc(-c3ccccc3)nc3ccc4ccccc4c23)cc1)/c1ccccc1
inhibition [1]: inactive

N/N=c1\c2ccccc2c2ccc3c4ccccc4/c(=N\N)c3c12
inhibition [1]: inactive

O=C(NCCc1ccccc1)c1ccc2ccccc2n1
inhibition [1]: inactive

O=[N+]([O-])c1ccc(/C=C/c2cc(-c3ccccc3)nc3ccc4ccccc4c23)cc1
pIC50 [2]: 5.02
inhibition [1]: inactive

Clc1ccc(-c2nc3ccc4ccccc4c3c3c2CCCC3)cc1
inhibition [1]: inactive

C(=C\Nc1ccc(-c2ccccc2)cc1)/C=N/c1ccc(-c2ccccc2)cc1
pIC50 [2]: 5.01
inhibition [1]: inactive

c1ccc(-c2sc(-c3ccccc3)c3c2C2CCC3C2)cc1
inhibition [1]: inactive

Cc1nc(-n2nc(-c3ccccc3)cc2-c2ccccc2)sc1C(=O)/C=C/c1ccc([N+](=O)[O-])cc1
pIC50 [2]: 5.22

Oc1ccc2ccccc2c1/N=N/c1ccc(F)cc1
inhibition [1]: inactive

Cc1c2ccnc(-c3ccccc3)c2cc2c1[nH]c1ccccc12
pIC50 [2]: 5.68
inhibition [1]: inactive

COc1ccc(/C(C#N)=C\c2cc(OC)c(OC)c(OC)c2)cc1
pIC50 [3]: 4.40
pIC50 [2]: 4.70

CCN(CC)CCNC(=O)c1c2c(nc3ccccc13)CCCC2
inhibition [1]: inactive

Cc1ccc(-c2cn3c(nc4ccccc43)c(-c3ccccc3)n2)cc1
inhibition [1]: inactive

Cn1cc/c(=N\N=c2/ccn(C)c3ccccc23)c2ccccc21
pIC50 [2]: 5.21
inhibition [1]: inactive

Clc1ccc2nc3c(c(-c4ccccc4)nn3-c3ccccc3)c(-c3ccccc3)c2c1
inhibition [1]: inactive

Oc1cc(O)cc(-c2c(O)cc(O)cc2O)c1
pIC50 [3]: 5.00

O=C(C(=O)c1cc(-c2ccccc2)nc2ccc3ccccc3c12)c1ccccc1
inhibition [1]: inactive

C(=C\c1c[nH]c2ccccc12)/c1nccc2ccccc12
pIC50 [2]: 5.74
inhibition [1]: inactive

N=C(N)c1ccc(/N=N/c2c(O)c(C(=O)Nc3ccccc3)cc3ccccc23)cc1
pIC50 [2]: 5.22
inhibition [1]: inactive

C(=N\NC1=NCCN1)/c1c2ccccc2c(/C=N/NC2=NCCN2)c2ccccc12
inhibition [1]: inactive

CCn1c2ccccc2c2cc(N)c(/N=N/c3ccc([N+](=O)[O-])cc3)cc21
pIC50 [2]: 5.30
inhibition [1]: inactive

Cc1ccc(/C=C/C(=O)c2sc(-n3nc(-c4ccccc4)cc3-c3ccccc3)nc2C)cc1
pIC50 [2]: 5.49

CC(=O)CCNc1ccc(-c2cc(-c3ccc(N(C)C)cc3)nc3ccc4ccccc4c23)cc1
inhibition [1]: inactive

Fc1ccccc1C1CC(c2ccc3ccccc3c2)=Nc2ccccc2S1 (stereo not drawn)
pIC50 [3]: 6.41

Cc1nc(-n2nc(-c3ccccc3)cc2-c2ccccc2)sc1C(=O)/C=C/c1ccccc1
pIC50 [2]: 5.24

CCN1/C(=C/c2ccc3ccccc3[n+]2CC)C=Cc2ccccc21
pIC50 [2]: 5.57
inhibition [1]: inactive

CC(/C=C/C(=O)c1sc(-n2nc(-c3ccccc3)cc2-c2ccccc2)nc1C)=C\c1ccccc1
pIC50 [2]: 5.42

Oc1ccccc1C(=NNc1ccccc1)c1ccccc1O
pIC50 [3]: 5.52
pIC50 [2]: 5.41

C#CCN(Cc1ccc2nc(-c3ccccc3)c(Cl)nc2c1)c1cc(OC)c(OC)c(OC)c1
inhibition [1]: inactive

Cc1cc2c(ccc3c2ccc[n+]3C)[nH]1
pIC50 [2]: 5.68
inhibition [1]: inactive

CN(CCc1ccccn1)c1ccc2c(c1)Cc1ccccc1-2
inhibition [1]: inactive

COc1cc(/C=C/c2ccc(OC)c(O)c2)cc(OC)c1
pIC50 [2]: 4.82

Cn1c2ccccc2c2c3ccc[n+](C)c3ccc21
pIC50 [2]: 5.26
inhibition [1]: inactive

c1ccc2sc(-c3c4ccccc4cc4ccc5ccccc5c34)cc2c1
pIC50 [3]: 5.96
pIC50 [2]: 5.22

Cc1ccc(C(=N)c2ccccc2Cc2cccc3ccccc23)c2ccccc12
inhibition [1]: inactive

Oc1ccc(-c2ccc(O)cc2O)c(O)c1
inhibition [1]: inactive

c1ccc2cc(-c3cc(-c4cc(-c5ccc6ccccc6c5)on4)no3)ccc2c1
inhibition [1]: inactive

COc1cc2cc(-c3cc(OC)c(OC)c(OC)c3)c3c(c2cc1OC)CNC3
pIC50 [2]: 5.57
inhibition [1]: inactive

c1ccc2c3ccn4ccc5c6ccccc6[nH]c5c4c-3nc2c1
pIC50 [2]: 5.54
inhibition [1]: inactive

Fc1ccc2c(c1)SC1Oc3ccccc3-c3c1c-2nn3-c1ccccc1 (stereo not drawn)
inhibition [1]: inactive

N=C(N)c1ccc(/N=N/c2cc(/C=C/c3ccccc3)ccc2O)cc1
pIC50 [2]: 5.85
inhibition [1]: inactive

O=[N+]([O-])c1ccc(-n2nc3ccc4c(no[n+]4[O-])c3n2)cc1
inhibition [1]: inactive

Cc1nc(-n2nc(-c3ccccc3)cc2-c2ccccc2)sc1C(=O)/C=C/c1ccc(Cl)cc1
pIC50 [2]: 5.28

c1ccc2c(-c3ccsc3)c3c(ccc4ccccc43)cc2c1
pIC50 [2]: 5.29
inhibition [1]: inactive

COc1cc(NC(C)CCCN)c2ncccc2c1 (stereo not drawn) [PRIMAQUINE]
pIC50 [2]: 5.12
inhibition [1]: inactive

Cc1nc(-n2nc(-c3ccccc3)cc2-c2ccccc2)sc1C(=O)/C=C/c1ccc(Cl)c(Cl)c1
pIC50 [2]: 5.31

Cc1nc(-n2nc(-c3ccccc3)cc2-c2ccccc2)sc1C(=O)/C=C/c1cccc([N+](=O)[O-])c1
pIC50 [2]: 5.19

CN(C)c1ccc(/C=c2\c3ccccc3n3c2cc(-c2ccccc2)[n+]3C)cc1
pIC50 [2]: 5.77
inhibition [1]: inactive

Source: ChEMBL document CHEMBL1287791, “In silico identification and biochemical evaluation of novel inhibitors of NRH:quinone oxidoreductase 2 (NQO2)” (Bioorg Med Chem Lett, 2010)
